Consider one compound from patent publication US9717737B2, “Vacuolin-1 as an inhibitor of autophagy and endosomal trafficking and the use thereof for inhibiting tumor progression” (The University of Hong Kong, priority 2014, dated 2017).

For experiment [1], the system named is HeLa cells. Kind of experiment: DQ-BSA-green degradation assay (flow cytometry). The following applies: 1 μM. It counts as cell-based. The protocol: (§1) Since the increase of lysosomal pH normally compromises the lysosomal activity, it was assessed whether vacuolin-1 affects the general lysosomal functions to inhibit autophagy maturation. […] Next, an epidermal growth factor receptor (EGFR) degradation assay was performed to examine whether vacuolin-1 affects the general endosomal-lysosomal pathway. In this assay, HeLa cells were treated with EGF in the presence or absence of vacuolin-1. After EGF binds to its receptors (EGFR), the receptor complex undergoes endocytosis and is targeted tolysosomes for degradation. […] Similarly, a DQ-BSA-green degradation assay was applied to measure the general endosomal-lysosomal degradation. DQ-BSA-green is a BSA labeled with a self-quenching fluorescent dye. After DQ-BSA-green is delivered to lysosomes via endocytosis, it is hydrolyzed into single dye-labeled peptides by lysosomal proteases, thereby relieving self-quenching and the fluorescence can subsequently be monitored by flow cytometry.
For orientation: In flow cytometry, cells or beads pass a laser one at a time.

The test system of experiment [2] is HeLa cells. As to the kind of experiment: Lysosomal pH measurement (LysoSensor Green DND-189, LysoSensor Yellow/Blue DND-160). The class given is cell-based. The following applies: 1 μM. The procedure: Lysosomal pH measurement—LysoSensor Green DND-189 is commonly used to measure the pH of acidic organelles, such as lysosomes, which become more fluorescent in acidic environments. Briefly, cells were loaded with 1 μMLysoSensor Green DND-189 in pre-warmed regular medium for 20 min at 37° C. Then the cells were washed twice with PBS and immediately analyzed by flow cytometry (collecting FL1 fluorescence and 10,000 cells were collected for each sample) or in a microplate reader (excitation/emission=485/530 nm).
Quantification of lysosomal pH was performed using a ratiometriclysosomal pH dye LysoSensor Yellow/Blue DND-160. The pH calibration curve was generated as described previously (Bankers-Fulbright et al., 2004). Briefly, cells were trypsinized and labeled with 2 μM Lysosensor Yellow/Blue DND-160 for 30 min at 37° C. in regular medium, and excessive dye was washed out using PBS. […] Quantitative comparisons were performed in a 96-well plate, and the fluorescence was measured with a microplate reader at 37° C. Light emitted at 440 and 535 nm in response to excitation at 340 and 380 nm were measured, respectively. The ratio of light emitted with 340 and 380 nm excitation was plotted against the pH values in IVIES buffer, and the pH calibration curve for the fluorescence probe was generated from the plot using Microsoft Excel.

For experiment [3], the system named is human lung cancer stem cells (hLCSCs). Kind of experiment: Tumor sphere formation of hLCSCs. The class given is cell-based. The following applies: >10 μM. An excerpt: (§2) Cancer stem cells (CSCs), a subpopulation of cells within tumors, actually drive tumor growth and recurrence. CSCs are resistant to many current cancer treatments, including chemo- and radiation therapy, thus they can survive these therapy to regenerate new tumors. […] Therefore, it is of great interest to assess the anti-tumor effects of vacuolin-1 on CSCs.

Experiment [4] concerns HeLa cells. Kind of experiment: EGFR degradation assay. It counts as cell-based. The following applies: HeLa cells treated with EGF. The procedure: as §1
The target of experiment [5] is T1, V-ATPase (purified V1V0 holoenzyme) (Manduca sexta, UniProt P31400).
T1 construct: Assays contained 3 μg of purified V1V0 holoenzyme; from tissue; host or cells: Fifth instar larvae of M. sexta; The midgut goblet cell apical membrane is named only in the title of the cited Wieczorek et al. 1990, not in the method text
As to the kind of experiment: In vitro V-ATPase assay. It counts as biochemical, M. sexta. The procedure: V-ATPase assay—Fifth instar larvae of M. sexta (Lepidoptera, Sphingidae), weighing 6-8 g, were reared under long day conditions (16 h of light) at 27° C. using the gypsy moth diet (MP Biomedicals, Germany). The purification of the V1VO holoenzyme was performed as previously described (Huss et al., 2002). Activity assays were performed in triplicate in a final volume of 160 μL and at a pH of 8.1. Assays contained 3 μg of purified V1V0 holoenzyme, 50 mM Tris-Mops, 3 mM 2-mercaptoethanol, 1 mM MgCl2, 20 mM KCl, 0.003% C12E10, 20 mM NaCl, and 3 mM Tris-HCl. After 10 min of preincubation at 30° C., with or without inhibitors, 1 mM Tris-ATP was added and after an incubation for 2 min at 30° C. the reaction was stopped by freezing the samples in liquid nitrogen. Inorganic phosphate was determined as previously described (Wieczorek et al., 1990).

The next experiment concerns the target T2, Rab5 (Homo sapiens, UniProt P20339).
T2 construct: results of a GST-tagged Rabaptin5 pull-down assay in HeLa cells showing active Rab5 in cells treated with vacuolin-1 (1 μM); endogenous in cells; host or cells: HeLa cells
T2 sequence (P20339 1-215): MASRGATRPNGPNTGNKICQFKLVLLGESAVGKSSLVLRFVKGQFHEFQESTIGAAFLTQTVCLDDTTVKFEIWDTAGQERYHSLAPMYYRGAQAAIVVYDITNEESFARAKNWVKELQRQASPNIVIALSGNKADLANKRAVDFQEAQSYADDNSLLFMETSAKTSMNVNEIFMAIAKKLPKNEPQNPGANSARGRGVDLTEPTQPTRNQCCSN
As to the kind of experiment: GST-tagged Rabaptin5 pull-down assay for active Rab5. The class given is cell-based. To be noted: HeLa cells, 1 μM. The protocol: Glutathione S-Transferase (GST) Pull-Down Assay—Cells were collected and lysed in an ice-cold EBC lysis buffer described previously. Lysates were clarified by centrifugation at 13,000 g for 10 min at 4° C., and equal amount of protein (500 μg) from each supernatant was incubated with 30 μl of GST-RSBD bound to the 30 μl glutathione—Sepharose beads for 1 h at 4° C. on a rotating mixer. The beads was subsequently washed and resuspended in the standard SDS-sample buffer, boiled and subjected to SDS-PAGE (15% gel), followed by immunoblot analysis with the anti-Rab5 mAb.

In experiment [6] the test system is human lung cancer stem cells (hLCSCs). As to the kind of experiment: Colony formation of hLCSCs. The following applies: >10 μM. It counts as cell-based.
Excerpt: as §2

For experiment [7] the test system is unchanged. As to the kind of experiment: Invasion of hLCSCs. The class given is cell-based. The following applies: >10 μM.
Excerpt: as §2

For experiment [8] the test system is unchanged. As to the kind of experiment: Migration of hLCSCs. It counts as cell-based. To be noted: >10 μM.
Excerpt: as §2

Experiment [9] relates to HeLa cells. As to the kind of experiment: Immunofluorescence staining of GFP-LC3 puncta and RFP-Lamp1. It counts as cell-based. To be noted: 1 μM. The protocol: Western blot and Immunofluorescence staining analyses—Both assays were performed as described previously (Lu et al., 2013).

T1 sequence (P31400 whole entry): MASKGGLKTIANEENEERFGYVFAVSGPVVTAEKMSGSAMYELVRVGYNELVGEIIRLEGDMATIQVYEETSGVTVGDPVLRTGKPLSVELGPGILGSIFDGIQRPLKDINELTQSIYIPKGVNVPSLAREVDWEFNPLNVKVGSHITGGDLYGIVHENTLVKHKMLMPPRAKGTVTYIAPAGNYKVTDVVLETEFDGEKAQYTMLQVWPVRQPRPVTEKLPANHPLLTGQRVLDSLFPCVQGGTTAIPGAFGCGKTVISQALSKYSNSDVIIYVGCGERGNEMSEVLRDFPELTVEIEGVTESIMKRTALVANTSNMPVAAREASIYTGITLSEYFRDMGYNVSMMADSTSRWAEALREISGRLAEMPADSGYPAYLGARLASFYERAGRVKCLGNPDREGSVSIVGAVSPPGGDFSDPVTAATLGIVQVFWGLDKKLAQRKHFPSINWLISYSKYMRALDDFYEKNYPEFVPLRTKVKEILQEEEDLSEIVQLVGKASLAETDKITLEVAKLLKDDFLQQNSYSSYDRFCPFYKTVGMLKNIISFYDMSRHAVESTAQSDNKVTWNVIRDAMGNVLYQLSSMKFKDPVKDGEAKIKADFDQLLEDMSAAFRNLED

Take `Ic1cccc(/C=N/Nc2nc(N3CCOCC3)nc(N(c3ccccc3)c3ccccc3)n2)c1` [vacuolin-1]: the “degradation of DQ-BSA-green by lysosomes” value in the experiment with HeLa cells [1] was “markedly inhibited the degradation of BSA”. Moreover, the “lysosomal pH, qualitative (LysoSensor Green DND-189)” value in the experiment with HeLa cells [2] is reported as “raised lysosomal pH”. For the same compound, the “lysosomal pH, quantitative ratiometric (LysoSensor Yellow/Blue DND-160)” value in the experiment on HeLa cells [2] (control cells pH 4.7) is listed as 5.2 pH. In experiment [3], the “tumor sphere formation of hLCSCs” value is “almost completely inhibited”. Further, the “EGF-triggered EGFR degradation” value in the experiment on HeLa cells [4] was “inhibited EGF-triggered EGFR degradation”. The “V-ATPase activity in vitro” value in experiment [5] is “little effects”. The “Rab5 activation (Rab5-GTP pull-down)” value at Rab5 is “markedly activated Rab5”. Moreover, the “colony formation of hLCSCs” value in experiment [6] is on record as “almost completely inhibited”. The “invasion of hLCSCs” value in experiment [7] is “almost completely inhibited”. In addition, the “migration of hLCSCs” value in experiment [8] is recorded as “almost completely inhibited”. Further, in the experiment with HeLa cells [9], the GFP-LC3 puncta result is “greatly increased” and the “co-localization of GFP-LC3 puncta with Lamp1” value is given as “did not co-localize with Lamp1”.
